Reference: patent US8946283B2, “Composition for preventing or treating obesity, dyslipidemia, fatty liver or diabetes containing indole-3-carbinol derivative as active ingredient” (Industry-Academic Cooperation Foundation, Yonsei University, priority 2011, dated 2015)

Key:
3T3-L1 cells = assay: Inhibition of adipocyte differentiation, Oil Red O staining of triglyceride; assay type: cell-based, mouse
Protocol: Mouse adipocyte cell line (3T3-L1) was used to investigate the effect of various indole-3-carbinol derivatives on differentiation and growth of adipocytes. The preadipocytes, 3T3-L1 cells, were seeded on a 12-well plate and cultured to confluency using Dulbecco's modified Eagle's medium (DMEM) containing 1% penicillin-streptomycin, 1% nonessential amino acid and 10% fatal bovine serum (FBS), in a 5% CO2 incubator at 37° C. The 3T3-L1 cells grown to confluency were cultured for 2 days in MDI medium containing 0.5 mM isobutylmethylxanthine, 1 μM dexamethasone and 1 μg/mL insulin to differentiate them into adipocytes. Then, the cells were further cultivated in DMEM containing 1 μg/mL insulin to differentiate them into mature adipocytes. The cells were further cultured for 10 more days while replacing DMEM every other day to obtain fully differentiated adipocytes.
From the first day when MDI was added to the 3T3-L1 cells, 16 indole-3-carbinol derivative compounds were treated at concentrations of 0.1, 1, 10, 50 and 100 μM with 2-day intervals. The structure and molecular weight of the 16 indole-3-carbinol derivatives (B518, B521, B525, B528, B538, B540, B542, B544, B545, B546, B547, B549, B551, B556, B558 and B561) are described in Table 1. The derivative compounds were used after being dissolved in DMSO. Only DMSO was added to the negative control group.
After culturing for a total of 14 days, the medium was removed when the differentiation was completed and lipid droplets in the differentiated adipocytes were stained. For this, the cells were washed twice with phosphate buffered saline (PBS), fixed in 10% buffered neutral formalin (BNF) for 1 hour, washed once again with PBS, stained for 1 hour by adding 1 mL of Oil Red O dye, which specifically stains fat red, on the 12-well plate, and washed twice with distilled water. In order to measure the level of triglyceride contained in the differentiated 3T3-L1 cells, the stained lipid droplets were dissolved in 1 mL of isobutanol and optical density (OD) value was measured at 600 nm.

[1] = Body weight gain and visceral fat weight of mice fed high-fat test diet; assay type: in vivo, C57BL/6J mice; conditions: 0.05% in high-fat diet, 10 weeks
Protocol: (§1) The obesity-inducing control diet used in the test was high-fat diet (HFD: 40% fat calorie, 17 g lard+3% corn oil/100 g diet). Diets supplemented with indole-3-carbinol derivatives (B525 and B528) had the same composition as HFD, except that each derivative was included at 0.05% (see Table 2). The diabetic drug metformin was added at 0.1% or the hyperlipidemic drug atorvastatin was added at 0.01% to HFD as controls. The normal diet group (Chow) was fed with commercially available rodent chow.
(§2) 56 5-week-old male C57BL/6J mice (Orient, Korea) were accustomed to the laboratory environment for 1 week while feeding solid feed. Then, they were randomly divided into normal diet, high-fat diet and test groups (n=8/group) and bred for a total of 10 weeks. The diet was given between 10 and 11 a.m. every day together with water. Food intake was measured every day and body weight was measured once a week. In order to avoid transient body weight increase after feed intake, body weight was measured 2 hours after removing the feed. After fasting the test animal for at least 12 hours and anesthetizing with diethyl ether, blood, liver and visceral fat (epididymal fat, perirenal fat, mesenteric fat and retroperitoneal fat) were taken and weighed after washing with 0.1 M PBS (pH 7.4). Blood taken from the abdominal aorta was centrifuged at 1000×g for 15 minutes to separate the plasma.

[2] = Biochemical analysis of blood (plasma lipids) of mice fed high-fat test diet; assay type: in vivo, C57BL/6J mice; conditions: 0.05% in high-fat diet, 10 weeks
Protocol: as §1, §2
After 10 weeks of breeding, total cholesterol, triglyceride and glucose levels in the plasma and lipid level in the liver tissue were measured as follows. Total cholesterol, triglyceride and free fatty acid levels in the plasma were measured twice for each using a commercially available kit (Bio Clinical System).

[3] = Fasting blood sugar and oral glucose tolerance test in mice fed high-fat test diet; assay type: in vivo, C57BL/6J mice
Protocol: as §1, §2
On week 8 after feeding the test diet, oral glucose tolerance test was performed for all the groups. After fasting the mouse for 16 hours, glucose (2 g glucose/10 mL distilled water/kg body weight) was orally administered. Before and 15, 30, 60 and 120 minutes after the oral administration, the tail end was cut by about […] and blood was taken. Glucose level was measured using a glucose meter.

[4] = Liver weight and lipid level in liver tissue of mice fed high-fat test diet; assay type: in vivo, C57BL/6J mice; conditions: 0.05% in high-fat diet, 10 weeks
Protocol: as §1, §2
Lipids were extracted from the liver tissue according to Folch et al.'s method Folch J et al., J Biol. Chem. 226: 497-509 (1957)). After adding 1 mL of distilled water to 0.25 g of liver tissue, the liver tissue was homogenized using a Polytron homogenizer (IKA-Werke GmbH & Co., Ultra-Turrax, Staufen, Germany). After adding 5 mL of chloroform:methanol solution (2:1, v/v) to the homogenate and mixing well, the mixture was centrifuged at 1000×g for 10 minutes. After adding 2 mL of chloroform:methanol solution (2:1, v/v) again to the supernatant, the same procedure was repeated to completely separate the lipid components of the liver. After adding 3 mL of chloroform:methanol:0.05% CaCl2 (3:48:47, v/v/v) solution to the remaining pellets and mixing well for 1 minute, followed by centrifugation at 1000×g for 10 minutes, the resulting pellets were completely dried with nitrogen gas. The dried lipids were dissolved in 1 mL of methanol and then analyzed.
The same kit (Bio Clinical System) as that used for the plasma analysis was used to measure the triglyceride and cholesterol levels of the liver tissue.

CCN1C(=O)C(O)(c2c(C)[nH]c3ccccc23)c2cc(Br)ccc21 (centres unmarked) [B528, 5′-Bromo-1′-ethyl-3′-hydroxy-2-methyl-1′,3′-dihydro-1H,2′H-3,3′-biindol-2′-one]
differentiation of the preadipocytes 3T3L1 (3T3-L1 cells; 0.1, 1, 10, 50 and 100 μM, 14 days, vs DMSO control): reduced the differentiation of the preadipocytes 3T3L1 in a concentration-dependent manner | triglyceride accumulation in cells (3T3-L1 cells; 3T3-L1 cells, FIGS. 1-3): effectively reduce triglyceride accumulation in cells | decrease of body weight gain as compared to HFD [1]: 30% | reduction of total visceral fat weight as compared to HFD [1]: 26% | weight of epididymal fat, perirenal fat, mesenteric fat and retroperitoneal fat as compared to HFD [1]: significantly reduced | reduction of arteriosclerotic index in blood plasma as compared to HFD [2]: 35% | reduction of total cholesterol level in blood plasma as compared to HFD [2]: 21% | reduction of triglyceride level in blood plasma as compared to HFD [2]: 38% | reduction of fasting blood sugar level as compared to HFD ([3]; 0.05% in high-fat diet, 8 weeks): 39% | blood glucose level after oral glucose as compared to HFD ([3]; OGTT, 15, 30, 60 and 120 minutes, week 8): decreased blood glucose level at all times | change of blood glucose level after oral glucose as compared to HFD ([3]; OGTT, after 60 minutes, week 8): −29% | area under the curve (AUC) of the blood glucose level as compared to HFD ([3]; OGTT, week 8): decreased significantly | effect on oral glucose tolerance compared to controls metformin and atorvastatin ([3]; OGTT, week 8): excellent effect of improving oral glucose tolerance, better than the controls metformin and atorvastatin | appearance of liver tissue as compared to HFD [4]: smaller and darker liver tissue | decrease of cholesterol level in liver tissue as compared to HFD [4]: 28% | decrease of liver weight as compared to HFD [4]: 31% | decrease of triglyceride level in liver tissue as compared to HFD [4]: 34%
